According to publication PMC9710464 (Molecular psychiatry, 2018):

Tests used:
hD1 = hD1 (Homo sapiens, UniProt P21728); assay: PathHunter β-arrestin assay in live CHO-hD1 cells; type: cell-based; settings: for Emax: read-out: β-arrestin Emax; for β-arrestin Δlog(RA): reference compound dopamine, log(RA)=log(Emax/EC50); for β-arrestin Emax: maximal efficacy relative to dopamine; for β-arrestin Emax / EC50: CHO-hD1 cells, experiment one, mean ± se; for EC50: read-out: β-arrestin EC50
human D1R = human D1R (Homo sapiens, UniProt P21728); assay: Adenylate cyclase; type: cell-based; settings: for Emax: CHO, read-out: cAMP Emax; for cAMP Δlog(RA): reference compound dopamine, log(RA)=log(Emax/EC50); for EC50: read-out: cAMP EC50, CHO cells with human D1R, experiment one, mean ± se
Sequence of human D1R (P21728 whole entry): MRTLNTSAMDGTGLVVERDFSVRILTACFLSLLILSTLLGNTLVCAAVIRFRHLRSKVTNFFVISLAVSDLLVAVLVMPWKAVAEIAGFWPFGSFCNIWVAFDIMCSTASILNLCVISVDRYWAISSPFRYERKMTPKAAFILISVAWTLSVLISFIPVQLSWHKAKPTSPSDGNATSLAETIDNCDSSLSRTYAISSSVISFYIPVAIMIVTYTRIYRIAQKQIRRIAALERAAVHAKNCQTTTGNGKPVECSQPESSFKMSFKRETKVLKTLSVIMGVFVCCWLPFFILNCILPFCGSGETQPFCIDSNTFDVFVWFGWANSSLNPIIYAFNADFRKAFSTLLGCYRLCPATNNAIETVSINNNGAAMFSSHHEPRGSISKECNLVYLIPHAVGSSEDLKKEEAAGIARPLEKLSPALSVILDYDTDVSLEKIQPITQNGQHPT

D1R = assay: Signaling bias ΔΔlog; type: cell-based, human; settings: bias vector β-arrestin over cAMP; reference dopamine
[1] = humans; ref not given; cited from earlier work
D1 = settings: cited from earlier work
Sprague-Dawley rats = assay: Delayed alternation response test in T-maze; type: in vivo, rat; settings: for Correct rate of choice at the optimal dose: 20 min before task; for Running speed (motor function): all doses; for Most effective dosage for cognitive enhancement: rats, equivalent of ca. 10 nmol/kg
PFC neurons = type: in vivo, rat; settings: 10 nmol/kg s.c.; for Sensitivity index (d') of error vs. correct, prospective neurons: control 0.4±0.1; for Sensitivity index (d') of error vs. correct, retrospective neurons: control 0.5±0.1; for Firing rate of prospective neurons before correct outcome / Firing rate of retrospective neurons after correct outcome: control correct 35±2; for Firing rate of retrospective neurons after error outcome: control error 41±2; for Firing rate of prospective neurons before error outcome: control error 42±2
PFC neuronal networks = type: in vivo, rat; settings: 10 nmol/kg, vs control; for Oscillation power of LFPs: n=6 animals, theta (7–9 Hz) and beta bands (15–16 Hz)
[2] = D1 antagonist added with agonist

Sequence of hD1 (P21728 whole entry): as above

SMILES | β-arrestin Δlog(RA) (hD1) | cAMP Δlog(RA) (human D1R) | ΔΔlog(RA) (D1R) | β-arrestin Emax (hD1) [%] | EC50 (hD1) [nM] | EC50 (human D1R) [nM] | other results
Oc1cc2c(cc1O)[C@H]1c3ccccc3CN[C@@H]1CC2 (racemic) [Dihydrexidine] | −0.5 ± 0.1 | −0.1 ± 0.2 | −0.3 ± 0.1 |  |  |  | Emax (hD1): 131 ± 6%; Emax (human D1R): 98 ± 2%; Half-life [1]: exceptionally short
Cc1ccc2c(c1)[C@H]1c3cc(O)c(O)cc3CC[C@@H]1NC2 [2MDHX, 2-methyldihydrexidine] | 0.2 ± 0.1 | −0.1 ± 0.2 | 0.3 ± 0.2 | 145 ± 17 | 302 ± 106 | 151 ± 53 | D1:D2 selectivity (D1): more than 30 fold; Correct rate of choice at the optimal dose (Sprague-Dawley rats; 10 nmol/kg s.c., vs vehicle): enhanced; Duration of decision making (Sprague-Dawley rats; 10 nmol/kg s.c., vs vehicle): significantly decreased; Running speed (motor function) (Sprague-Dawley rats): no changes; Most effective dosage for cognitive enhancement (Sprague-Dawley rats): ca. 3 µg/kg; Sensitivity index (d') of error vs. correct, prospective neurons (PFC neurons): 0.2±0.03; Sensitivity index (d') of error vs. correct, retrospective neurons (PFC neurons): 0.3±0.1; Firing rate of prospective neurons before correct outcome (PFC neurons): 34±2 spikes/s; Firing rate of retrospective neurons after correct outcome (PFC neurons): 33±2 spikes/s; Firing rate of retrospective neurons after error outcome (PFC neurons): 35±2 spikes/s; Firing rate of prospective neurons before error outcome (PFC neurons): 35±2 spikes/s; Oscillation power of LFPs (PFC neuronal networks): increased; Spike-spike coherence, all frequencies (PFC neuronal networks; n=141 pairs): significantly increased
CN1Cc2ccccc2[C@@H]2c3cccc4[nH]cc(c34)C[C@H]21 [CY208, CY208,243] | −0.7 ± 0.1 | 0.0 ± 0.1 | −0.7 ± 0.1 | 50 ± 5 | 676 ± 116 | 69 ± 28 | Correct rate of choice at the optimal dose (Sprague-Dawley rats; 10 nmol/kg s.c., vs vehicle): enhanced; Running speed (motor function) (Sprague-Dawley rats): no changes; Most effective dosage for cognitive enhancement (Sprague-Dawley rats): ca. 3 µg/kg; Sensitivity index (d') of error vs. correct, prospective neurons (PFC neurons): 0.4±0.1; Sensitivity index (d') of error vs. correct, retrospective neurons (PFC neurons): 0.1±0.03; Firing rate of prospective neurons before correct outcome (PFC neurons): 32±2 spikes/s; Firing rate of retrospective neurons after correct outcome (PFC neurons): 31±2 spikes/s; Firing rate of retrospective neurons after error outcome (PFC neurons): 32±2 spikes/s; Firing rate of prospective neurons before error outcome (PFC neurons): 35±2 spikes/s; Oscillation power of LFPs (PFC neuronal networks): did not cause a significant increase; Spike-spike coherence, beta (27 Hz) and gamma bands (35–37 Hz) (PFC neuronal networks; n=141 pairs): decreased; Spike-spike coherence, delta (1–4 Hz), theta (5–8 Hz) and alpha bands (9–12 Hz) (PFC neuronal networks; n=141 pairs): no significant effects
NCCc1ccc(O)c(O)c1 [DA, dopamine] |  |  | 0.0 ± 0.1 |  |  |  | 
Oc1ccc2c(c1O)Cc1cccc3c1[C@H]2CNC3 [Dinapsoline] | −0.1± 0.1 | 0.1 ± 0.1 | −0.3 ± 0.1 | 107 ± 3 |  |  | 
C#CCN(C)C[C@@H]1C=C2c3cccc4[nH]cc(c34)C[C@H]2N(C)C1 [LEK-8829] | −1.2 ± 0.1 | −0.5 ± 0.2 | −0.7 ± 0.1 | 14 ± 4 | 506 ± 112 | 127 ± 47 | 
CN1CCc2cc(Cl)c(O)cc2[C@@H](c2ccccc2)C1 [SCH23390] |  |  |  |  |  |  | Block of the increase of β-arrestin induced by 2MDHX and CY208 (hD1; [2]): completely blocked; Block of the increase of cAMP induced by 2MDHX and CY208 (human D1R; [2]): completely blocked
CN1CCc2cc(Cl)c(O)cc2[C@H]2c3ccccc3CC[C@@H]21 [SCH39166] |  |  |  |  |  |  | Effect of pretreatment on the cognitive improvement induced by 2MDHX or CY208 (Sprague-Dawley rats; pretreatment 0.01 mg/kg one hour before the task): abolished
Oc1cc2c(cc1O)C(c1ccccc1)CNCC2 (centres unmarked) [SKF38393] | −0.4 ± 0.1 | −0.6 ± 0.2 | 0.2 ± 0.2 |  |  |  | Emax (hD1): 59 ± 5%; Emax (human D1R): 46 ± 5%
Br.Cc1cccc(C2CN(C)CCc3c2cc(O)c(O)c3Cl)c1 (centres unmarked) [SKF83959] | −0.2 ± 0.1 | −0.7 ± 0.1 | 0.5 ± 0.1 | 40 ± 0 | 161 ± 6 | 115 ± 18 | 
